Reference: publication PMC10893103, “Cyclodextrin-Enabled Enantioselective Complexation Study of Cathinone Analogs” (Molecules, 2024)

experiment: Affinity capillary electrophoresis (ACE), pH 7.4; settings: 30 mM phosphate buffer pH 7.4, 25 °C, 15 kV
Description: To assess the CD complex formation capability of the five cathinone derivatives, we devised a screening ACE method tailored to closely mimic physiological conditions. In a preliminary study, the ACE conditions were optimized regarding the type, pH, and concentration of the background electrolyte, the applied voltage, and the injection parameters. […] In order to avoid high Joule heat generation, sufficiently low voltage should be used; thus, after registering the Ohm plot (I-U plot), it was set to 15 kV. Throughout our ACE measurements, corrections for viscosity and ionic strength were systematically implemented to ensure precise determination of complex stability constants.
The CE experiments were performed on a HP ^3DCE and on an Agilent 7100 instrument (Agilent Technologies, Waldbronn, Germany) equipped with a photodiode array detector and the Chemstation software for data handling. Untreated fused silica capillaries (50 µm id, 48.5 cm total, 40 cm effective length) were purchased from Agilent. Conditioning of new capillary was conducted by flushing with 1 M NaOH followed by 0.1 M NaOH and water for 30 min each. Prior to all runs, the capillary was preconditioned by rinsing with BGE (2 min). The temperature of the capillary was set to 25 °C. UV detection was performed at 215 nm, and 15–25 kV voltage was applied. Samples were injected hydrodynamically (150 mbar·sec, optimized in the 50–500 mbar·sec range). The CE-pH measurements were carried out applying 25 kV voltage and 200 mbar·sec injection.
The background electrolyte of the CE-pH measurements contained 25 mM Na2HPO4 and 25 mM Na2B4O7, and the appropriate pH was adjusted with hydrochloric acid. During the ACE measurements, 30 mM phosphate buffer pH 7.4 (30 mM Na2HPO4—NaOH) was used. The running buffer was 20 mM acetic acid adjusting with 1 M Tris the pH to 4.5 during the chiral screening experiments. The BGEs contained CDs at various concentrations (0.25–20 mM) in the ACE experiments and 1-5-10 mM in the chiral method optimization experiments.
Stock solutions of each cathinone analog (mephedrone, flephedrone, 4-MEC, butylone, and MDPV) were prepared separately in methanol (1 mg/ml), and appropriate dilutions with water were used to prepare sample solutions for the CE-pH titration and for the ACE studies applying DMSO as EOF marker, while their mixture was used during the chiral separation studies.
The simplest way to determine the mobility is from the migration times (tmax) read from the electropherograms from which the apparent mobility could be calculated, but more accurate mobility values could be obtained by the determination with the Haarhoff–van der Linde (HVL) function based on Equation (2). (2) HVLδ(t;a0,a1,a2,a3δ)=a0/a2a3δ2πexp[−1/2(t−a1/a2)^2]/1/exp(a3δ)−1+1/2[1+erf(t−a1/2a2)] where a0 is the area of the HVL function, a1 is the position of the Gaussian component, a2 is the standard deviation of the Gaussian component, and a3δ is the peak shape distortion. The application of the HVL function is necessary in the case of accurate ACE measurements because, in several cases, the peaks are distorted due to the complex formation, which makes reading the migration times and calculating the mobility more difficult and imprecise.
The most popular technique for quantifying the analyte–ligand interaction with CE is mobility shift ACE.

| Compound | Flephedrone–CD complex stability constant, Kstab2 (second migrating enantiomer) [M⁻¹] | Flephedrone–CD complex stability constant, Kstab/Kstab1 (unresolved or first migrating enantiomer) [M⁻¹] | MDPV–CD complex stability constant, Kstab/Kstab1 (unresolved or first migrating enantiomer) | 4-MEC–CD complex stability constant, Kstab/Kstab1 (unresolved or first migrating enantiomer) [M⁻¹] | Butylone–CD complex stability constant, Kstab/Kstab1 (unresolved or first migrating enantiomer) | Mephedrone–CD complex stability constant, Kstab/Kstab1 (unresolved or first migrating enantiomer) [M⁻¹] | 4-MEC–CD complex stability constant, Kstab2 (second migrating enantiomer) [M⁻¹] | Butylone–CD complex stability constant, Kstab2 (second migrating enantiomer) | MDPV–CD complex stability constant, Kstab2 (second migrating enantiomer) | Mephedrone–CD complex stability constant, Kstab2 (second migrating enantiomer) [M⁻¹] |
| --- | --- | --- | --- | --- | --- | --- | --- | --- | --- | --- |
| phosphated-β-CD [Phos-β-CD] | 440 ± 35 | 330 ± 20 | 870 ± 60 M⁻¹ |  |  |  |  |  |  |  |
| sulfopropylated-γ-CD [SP-γ-CD] |  | < 10 | 140 ± 20 M⁻¹ | 70 ± 10 | 70 ± 10 M⁻¹ | 45 ± 4 |  |  |  |  |
| C[N+]1(C[C@H]2O[C@@H]3O[C@H]4[C@H](O)[C@@H](O)[C@@H](O[C@H]5[C@H](O)[C@@H](O)[C@@H](O[C@H]6[C@H](O)[C@@H](O)[C@@H](O[C@H]7[C@H](O)[C@@H](O)[C@@H](O[C@H]8[C@H](O)[C@@H](O)[C@@H](O[C@H]9[C@H](O)[C@@H](O)[C@@H](O[C@H]2[C@H](O)[C@H]3O)O[C@@H]9CO)O[C@@H]8CO)O[C@@H]7CO)O[C@@H]6CO)O[C@@H]5CO)O[C@@H]4CO)CCCCC1 [MePIP-β-CD, mono-6^A-(N-methyl-piperidine)-β-CD] |  | 40 ± 3 | 85 ± 5 M⁻¹ | 50 ± 5 | 40 ± 3 M⁻¹ | 45 ± 5 |  |  |  |  |
| sulfobutyl-ether-α-CD [SBE-α-CD] |  |  | 580 ± 80 M⁻¹ | 450 ± 45 | 220 ± 20 M⁻¹ | 430 ± 70 | 610 ± 55 | 530 ± 100 M⁻¹ | 550 ± 90 M⁻¹ | 565 ± 80 |
| sulfobutyl-ether-β-CD [SBE-β-CD (DS~4)] |  | 175 ± 25 |  | 560 ± 60 |  | 300 ± 60 | 550 ± 40 |  |  | 325 ± 60 |
| sulfo(2-hydroxy)propylated-γ-CD [SHP-γ-CD] |  | 45 ± 80 |  | 30 ± 7 | 30 ± 5 M⁻¹ | 15 ± 5 | 25 ± 5 | 70 ± 7 M⁻¹ |  | < 10 |
| carboxyethylated-β-CD [CE-β-CD] |  | 150 ± 10 |  | 590 ± 40 | 975 ± 95 M⁻¹ | 400 ± 30 |  |  |  | 430 ± 25 |
| OC[C@H]1O[C@@H]2O[C@H]3[C@H](O)[C@@H](O)[C@@H](O[C@H]4[C@H](O)[C@@H](O)[C@@H](O[C@H]5[C@H](O)[C@@H](O)[C@@H](O[C@H]6[C@H](O)[C@@H](O)[C@@H](O[C@H]7[C@H](O)[C@@H](O)[C@@H](O[C@H]8[C@H](O)[C@@H](O)[C@@H](O[C@H]1[C@H](O)[C@H]2O)O[C@@H]8CO)O[C@@H]7CO)O[C@@H]6CO)O[C@@H]5CN1CCCC1)O[C@@H]4CO)O[C@@H]3CO [PYR-β-CD, 6-monodeoxy-6-pyrrolidine-β-CD] |  | 640 ± 145 | 105 ± 15 M⁻¹ | 215 ± 30 |  | 115 ± 20 |  |  | 430 ± 50 M⁻¹ |  |
| sulfo(2-hydroxy)propylated-β-CD [SHP-β-CD] |  | 60 ± 10 | 800 ± 65 M⁻¹ | 250 ± 20 | 620 ± 35 M⁻¹ | 230 ± 20 | 300 ± 25 |  | 910 ± 55 M⁻¹ | 300 ± 20 |
| O=C(O)CCSC[C@H]1O[C@@H]2O[C@H]3[C@H](O)[C@@H](O)[C@@H](O[C@H]4[C@H](O)[C@@H](O)[C@@H](O[C@H]5[C@H](O)[C@@H](O)[C@@H](O[C@H]6[C@H](O)[C@@H](O)[C@@H](O[C@H]7[C@H](O)[C@@H](O)[C@@H](O[C@H]8[C@H](O)[C@@H](O)[C@@H](O[C@H]9[C@H](O)C(O)[C@@H](O[C@H]1[C@H](O)[C@H]2O)O[C@@H]9CSCCC(=O)O)O[C@@H]8CSCCC(=O)O)O[C@@H]7CSCCC(=O)O)O[C@@H]6CSCCC(=O)O)O[C@@H]5CSCCC(=O)O)O[C@@H]4CSCCC(=O)O)O[C@@H]3CSCCC(=O)O (stereo partly shown) [SGX, octakis(6-deoxy-6-(2-carboxyethyl)thio)-γ-CD] |  | 315 ± 20 |  | 975 ± 90 |  | 825 ± 65 | 960 ± 95 |  |  |  |
| CO[C@H]1[C@H]2O[C@H]3[C@H](OS(=O)(=O)O)[C@@H](OC)[C@@H](O[C@H]4[C@H](OS(=O)(=O)O)[C@@H](OC)[C@@H](O[C@H]5[C@H](OS(=O)(=O)O)[C@@H](OC)[C@@H](O[C@H]6[C@H](OS(=O)(=O)O)[C@@H](OC)[C@@H](O[C@H]7[C@H](OS(=O)(=O)O)[C@@H](OC)[C@@H](O[C@H]8[C@H](OS(=O)(=O)O)[C@@H](OC)[C@@H](O[C@@H]([C@@H]1OS(=O)(=O)O)[C@@H](COS(=O)(=O)O)O2)O[C@@H]8COS(=O)(=O)O)O[C@@H]7COS(=O)(=O)O)O[C@@H]6COS(=O)(=O)O)O[C@@H]5COS(=O)(=O)O)O[C@@H]4COS(=O)(=O)O)O[C@@H]3COS(=O)(=O)O [HMDiSu-β-CD, heptakis-(2-O-methyl, 3,6-O-disulfo)-β-CD] |  |  | 165 ± 25 M⁻¹ | 260 ± 10 | 265 ± 20 M⁻¹ |  |  |  |  |  |
| COCC1OC2OC3C(COC)OC(OC4C(COC)OC(OC5C(COC)OC(OC6C(COC)OC(OC7C(COC)OC(OC8C(COC)OC(OC1C(OC)C2OC)C(OC)C8OC)C(OC)C7OC)C(OC)C6OC)C(OC)C5OC)C(OC)C4OC)C(OC)C3OC (stereo not drawn) [TRIME-β-CD, permethylated-β-CD] |  | < 10 | 40 ± 10 M⁻¹ | 60 ± 15 | 20 ± 2 M⁻¹ | 20 ± 3 |  |  |  |  |
| succinyl-β-CD [Succ-β-CD (DS~4)] |  |  | 12,100 ± 2150 M^−1 |  | 13,500 ± 1350 M^−1 |  |  | 30,500 ± 5300 M^−1 | 10,600 ± 35 M^−1 |  |
